For the assay, the system named is Anopheles, Aedes, Stephinsi and Culex mosquito vectors. Briefly: Laboratory cage repellency, landing counts on treated sugar-soaked cotton bowls. In kind it is in vivo. On the procedure: Studies were carried out against each individual species in replicates of three in each of the replicate cage, one hundred 3 to 5-day old sugar—fed female mosquitoes were held. Mosquito that are pre-starved for 4 hr or more prior to testing were used for the experiment.
Five plastic bowls with sugar—soaked cotton (10% in water) were placed at four opposing corners and one in the middle of the cage. These bowls were treated with the specified concentration of the composition described in Example 3, one specified concentration of DEET (know synthetic repellent compound as positive control) and one with only sugar-soaked cotton (Negative control). The four treated bowls were placed in four opposing corners while the untreated negative control in the middle on the floor of the cage. Five-minute landing counts were made at 0, 1, 2, 3, 4, and 6 hours with the cups were removed between the exposure intervals. Mean percent repellency for each percent formulation and species was calculated based on the data of the three replicates at the given times of observation.

For `CCN(CC)C(=O)c1cccc(C)c1` [DEET], the “mosquitoes repelled with reference to the control” value (after 4 hrs) is reported as 79%. This compound also had a mosquitoes repelled (in 4 hrs) of 97%.

(Values after patent US20170215432A1, “SYNERGIZED PLANT EXTRACT/ESSENTIAL OIL BLEND COMPRISING BASIL OIL” (VAMA INC., priority 2014, published 2017).)
